We go through 26 compounds from patent publication US7112601B2, “Cycloalkyl heterocycles for treating hepatitis C virus” (priority 2003, dated 2006).

Molecules are shown by their SMILES. pIC50: −log10 of the molar value.

T1 sequence (Q9WMX2 2420-2992): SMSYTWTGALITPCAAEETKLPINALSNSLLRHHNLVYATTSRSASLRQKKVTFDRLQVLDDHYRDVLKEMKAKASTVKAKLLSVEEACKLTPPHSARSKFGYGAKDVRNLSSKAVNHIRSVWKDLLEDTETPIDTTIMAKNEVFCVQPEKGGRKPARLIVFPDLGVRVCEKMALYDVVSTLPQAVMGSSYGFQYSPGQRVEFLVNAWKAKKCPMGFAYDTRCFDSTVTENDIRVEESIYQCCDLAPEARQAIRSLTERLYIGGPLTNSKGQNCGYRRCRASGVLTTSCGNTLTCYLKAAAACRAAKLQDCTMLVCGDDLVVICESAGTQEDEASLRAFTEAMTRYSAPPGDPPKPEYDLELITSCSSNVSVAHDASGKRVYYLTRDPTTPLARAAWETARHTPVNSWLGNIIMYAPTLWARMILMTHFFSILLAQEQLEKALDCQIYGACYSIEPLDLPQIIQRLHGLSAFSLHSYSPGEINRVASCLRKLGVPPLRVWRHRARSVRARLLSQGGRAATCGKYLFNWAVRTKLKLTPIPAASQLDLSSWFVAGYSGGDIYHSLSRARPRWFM

This experiment addresses T1, HCV NS5B RdRp (Hepatitis C virus genotype 1b, UniProt Q9WMX2).
T1 construct: The protein was expressed with an 18 amino acid C-terminal truncation to enhance the solubility; made in house; host or cells: E. coli BL21(DE3)
The experiment can be described thus: HCV NS5B RdRp enzyme inhibition assay. The class given is biochemical. The protocol:
HCV NS5B RdRp cloning, expression, and purification. The cDNA encoding the NS5B protein of HCV, genotype 1b, was cloned into the pET21a expression vector. The protein was expressed with an 18 amino acid C-terminal truncation to enhance the solubility. The E. coli competent cell line BL21(DE3) was used for expression of the protein. Cultures were grown at 37° C. for ˜4 hours until the cultures reached an optical density of 2.0 at 600 nm. The cultures were cooled to 20° C. and induced with 1 mM IPTG. Fresh ampicillin was added to a final concentration of 50 ug/ml and the cells were grown overnight at 20° C.
Cell pellets (3L) were lysed for purification to yield 15–24 mgs of purified NS5B. The lysis buffer consisted of 20 mM Tris-HCl, pH 7.4, 500 mM NaCl, 0.5% triton X-100, 1 mM DTT, 1 mM EDTA, 20% glycerol, 0.5 mg/ml lysozyme, 10 mM MgCl2, 15 ug/ml deoxyribonuclease I, and Complete TM protease inhibitor tablets (Roche). After addition of the lysis buffer, frozen cell pellets were resuspended using a tissue homogenizer. To reduce the viscosity of the sample, aliquots of the lysate were sonicated on ice using a microtip attached to a Branson sonicator. The sonicated lysate was centrifuged at 100,000×g for 1 hr at 4° C. and filtered through a 0.2 μm filter unit (Corning).
The protein was purified using three sequential chromatography steps: Heparin sepharose CL-6B, polyU sepharose 4B, and Hitrap SP sepharose (Pharmacia). The chromatography buffers were identical to the lysis buffer but contained no lysozyme, deoxyribonuclease I, MgCl2 or protease inhibitor and the NaCl concentration of the buffer was adjusted according to the requirements for charging the protein onto the column. Each column was eluted with a NaCl gradient which varied in length from 5–50 column volumes depending on the column type. After the final chromatography step, the resulting purity of the enzyme is >90% based on SDS-PAGE analysis. The enzyme was aliquoted and stored at −80° C.
HCV NS5B RdRp enzyme assay. HCV RdRp genotype 1b assays were run in assay buffer composed of 20 mM Tris-HCl, pH 7.5, 2.5 mM KCl, 5 mM MgCl2, 1 mM DTT, 1.6 U RNAse inhibitor (Promega N2515), in 96 well plates (Falcon 3918). All compounds were serially diluted in DMSO and diluted further in assay buffer such that the final concentration of DMSO in the assay was 2%. Compounds were serially diluted (3-fold each time) for a 7 point inhibition analysis. HCV RdRp genotype 1b enzyme was used at a final concentration of 28 nM. A polyA template was used at 28 nM, and the oligo-dT12-18 primer was used at 840 nM final concentration. Preannealed primer and template were obtained commercially (Amersham 27-787802). ^3H-UTP was used at 0.125 μCi (1 μM total UTP). Reaction was initiated by the addition of enzyme. Reactions were incubated at 30° C. for 45 min, and stopped by adding 30 ul of 20% ice cold TCA. Plates were chilled for 30 minutes and harvested onto Unifilter-96, GF/B plates (Packard, 6005177) using a Packard FilterMate Cell Harvester. The harvest plates were prewashed 3 times, 200 ul/well, with 100 mM NaPPi. Harvested filters were washed 30 times, 200 ul/well, with distilled water followed by ethanol. Filter plates were dried, and 30 ul/well microscint-20 was added. Plates were read on a Packard Top Count NXT.
The IC50 values for compounds were determined using […] different [I], combined with 7 nM enzyme, 800 ng of the template-primer polyC/oligoG12 (1:5 molar ratio), and 0.7 uM of ^3H GTP containing 1 uCi. The observed fractional activity (fa=vi/vo) was used in the equation IC50=[I]/(1/fa-1) to determine a single point IC50 value. Typically, the single point IC50 values derived from [I] that produced fractional activities in the range of 0.1 to 0.8 relative to the uninhibited control were averaged to calculate the IC50 value for each compound.
A word on the pIC50: it is the IC50 on a negative log10 scale, so that one unit is a factor of ten. Compound `COC(=O)/C=C/c1nn(C2CCCCC2)c(-c2ccc(OCc3ccccc3)cc2)c1-c1ccccc1` [Example 25, Methyl (2E)-3-{5-[4-(benzyloxy)phenyl]-1-cyclohexyl-4-phenyl-1H-pyrazol-3-yl}-2-propenate] showed a pIC50 of less than 4.60.

As for `COC(=O)/C=C/c1nn(C2CCCCC2)c(-c2ccc(OCc3cc(OC)ccc3-c3ccc(Cl)cc3)cc2)c1-c1ccccc1` [Example 27], the pIC50 was less than 4.60.

For the compound `COc1ccc(-c2ccc(Cl)cc2)c(COc2ccc(-c3c(-c4ccccc4)c(/C=C/C(=O)O)nn3C3CCCCC3)cc2)c1` [Example 28], the pIC50 is 5.89.

The compound `CCOC(=O)c1cc(C2CCCCC2)n(-c2ccc(OCc3ccccc3)cc2)n1` [Example 29, Ethyl 1-[4-(benzyloxy)phenyl]-5-cyclohexyl-1H-pyrazole-3-carboxylate] gave a pIC50 of less than 4.60.

Compound `COC(=O)/C=C/c1cc(C2CCCCC2)n(-c2ccc(OCc3ccccc3)cc2)n1` [Example 30, Methyl (2E)-3-{1-[4-(benzyloxy)phenyl]-5-cyclohexyl-1H-pyrazol-3-yl}-2-propenoate] gave a pIC50 of less than 4.60.

For `O=C(O)/C=C/c1cc(C2CCCCC2)n(-c2ccc(OCc3ccccc3)cc2)n1` [Example 31, (2E)-3-{1-[4-(benzyloxy)phenyl]-5-cyclohexyl-1H-pyrazol-3-yl}-2-propenoic acid], the pIC50 was 5.35.

With `COC(=O)/C=C/c1cc(C2CCCCC2)n(-c2ccc(OCc3cc(OC)ccc3-c3ccc(Cl)cc3)cc2)n1` [Example 32, Methyl (2E)-3-(1-{4-[(4′-chloro-4-methoxy-1,1′-biphenyl-2-yl)methoxy]phenyl}-5-cyclohexyl-1H-pyrazol-3-yl)-2-propenoate], the pIC50 was less than 4.60.

Take `COc1ccc(-c2ccc(Cl)cc2)c(COc2ccc(-n3nc(/C=C/C(=O)O)cc3C3CCCCC3)cc2)c1` [Example 33, (2E)-3-(1-{4-[(4′-chloro-4-methoxy-1,1′-biphenyl-2-yl)methoxy]phenyl}-5-cyclohexyl-1H-pyrazol-3-yl)-2-propenoic acid]: the pIC50 was 5.62.

In turn, `CCOC(=O)/C(C)=C/c1cc(C2CCCCC2)n(-c2ccc(OCc3ccccc3)cc2)n1` [Example 34, Ethyl (2E)-3-{1-[4-(benzyloxy)phenyl]-5-cyclohexyl-1H-pyrazol-3-yl}-2-methyl-2-propenoate] gave a pIC50 of less than 4.60.

Compound `C/C(=C\c1cc(C2CCCCC2)n(-c2ccc(OCc3ccccc3)cc2)n1)C(=O)O` [Example 35, (2E)-3-{1-[4-(benzyloxy)phenyl]-5-cyclohexyl-1H-pyrazol-3-yl}-2-methyl-2-propenoic acid] had a pIC50 of less than 4.60.

The compound `CCOC(=O)/C(C)=C/c1cc(C2CCCCC2)n(-c2ccc(OCc3cc(OC)ccc3-c3ccc(Cl)cc3)cc2)n1` [Example 36, Ethyl (2E)-3-(1-{4-[(4′-chloro-4-methoxy-1,1′-biphenyl-2-yl)methoxy]phenyl}-5-cyclohexyl-1H-pyrazol-3-yl)-2-methyl-2-propenoate] showed a pIC50 of less than 4.60.

Compound `CCOC(=O)/C(C)=C/c1cc(C2CCCCC2)n(-c2ccc(OCc3cc(C(=O)NC)ccc3-c3ccc(Cl)cc3)cc2)n1` [Example 38] had a pIC50 of less than 4.60.

For `COC(=O)CCc1cc(C2CCCCC2)n(-c2ccc(OCc3ccccc3)cc2)n1` [Example 40, Methyl 3-{1-[4-(benzyloxy)phenyl]-5-cyclohexyl-1H-pyrazol-3-yl}propanoate], the pIC50 is less than 4.60.

As to `O=C(O)CCc1cc(C2CCCCC2)n(-c2ccc(OCc3ccccc3)cc2)n1` [Example 41], the pIC50 is 5.00.

On to `COC(=O)CCc1cc(C2CCCCC2)n(-c2ccc(OCc3cc(OC)ccc3-c3ccc(Cl)cc3)cc2)n1` [Example 42, Methyl 3-(1-{4-[(4′-chloro-4-methoxy-1,1′-biphenyl-2-yl)methoxy]phenyl}-5-cyclohexyl-1H-pyrazol-3-yl)propanoate], for which the pIC50 was less than 4.60.

On to `COc1ccc(-c2ccc(Cl)cc2)c(COc2ccc(-n3nc(CCC(=O)O)cc3C3CCCCC3)cc2)c1` [Example 43, 3-(1-{4-[(4′-chloro-4-methoxy-1,1′-biphenyl-2-yl)methoxy]phenyl}-5-cyclohexyl-1H-pyrazol-3-yl)propanoic acid], for which the pIC50 is 6.51.

`CC(C)(C)OC(=O)/C=C/c1cn(C2CCCCC2)c(-c2ccc(OCc3ccccc3)cc2)n1` [Example 44, tert-butyl (2E)-3-{2-[4-(benzyloxy)phenyl]-1-cyclohexyl-1H-imidazol-4-yl}-2-propenoate] gave a pIC50 of less than 4.60.

For `O=C(O)/C=C/c1cn(C2CCCCC2)c(-c2ccc(OCc3ccccc3)cc2)n1` [Example 45, (2E)-3-{2-[4-(benzyloxy)phenyl]-1-cyclohexyl-1H-imidazol-4-yl}-2-propenoic acid], the pIC50 is 5.18.

Compound `COC(=O)/C=C/c1cn(C2CCCCC2)c(-c2ccc(OCc3ccccc3)cc2)n1` [Example 46, Methyl (2E)-3-{2-[4-(benzyloxy)phenyl]-1-cyclohexyl-1H-imidazol-4-yl}-2-propenoate] showed a pIC50 of less than 4.60.

Compound `COC(=O)/C=C/c1cn(C2CCCCC2)c(-c2ccc(OCc3cc(OC)ccc3-c3ccc(Cl)cc3)cc2)n1` [Example 47, Methyl (2E)-3-(2-{4-[(4′-chloro-4-methoxy-1,1′-biphenyl-2-yl)methoxy]phenyl}-1-cyclohexyl-1H-imidazol-4-yl)-2-propenoate] showed a pIC50 of less than 4.60.

`COc1ccc(-c2ccc(Cl)cc2)c(COc2ccc(-c3nc(/C=C/C(=O)O)cn3C3CCCCC3)cc2)c1` [Example 48, (2E)-3-(2-{4-[(4′-chloro-4-methoxy-1,1′-biphenyl-2-yl)methoxy]phenyl}-1-cyclohexyl-1H-imidazol-4-yl)-2-propenoic acid] had a pIC50 of 5.28.

Take `CCOC(=O)/C(C)=C/c1cn(C2CCCCC2)c(-c2ccc(OCc3ccccc3)cc2)n1` [Example 49, Ethyl (2E)-3-{2-[4-(benzyloxy)phenyl]-1-cyclohexyl-1H-imidazol-4-yl}-2-methyl-2-propenoate]: the pIC50 is less than 4.60.

Take `C/C(=C\c1cn(C2CCCCC2)c(-c2ccc(OCc3ccccc3)cc2)n1)C(=O)O` [Example 50, (2E)-3-{2-[4-(benzyloxy)phenyl]-1-cyclohexyl-1H-imidazol-4-yl}-2-methyl-2-propenoic acid]: the pIC50 is 4.82.

The compound `CCOC(=O)/C(C)=C/c1cn(C2CCCCC2)c(-c2ccc(OCc3cc(OC)ccc3-c3ccc(Cl)cc3)cc2)n1` [Example 51, Ethyl (2E)-3-(2-{4-[(4′-chloro-4-methoxy-1,1′-biphenyl-2-yl)methoxy]phenyl}-1-cyclohexyl-1H-imidazol-4-yl)-2-methyl-2-propenoate] had a pIC50 of less than 4.60.

Compound `COc1ccc(-c2ccc(Cl)cc2)c(COc2ccc(-c3nc(/C=C(\C)C(=O)O)cn3C3CCCCC3)cc2)c1` [Example 52, (2E)-3-(2-{4-[(4′-chloro-4-methoxy-1,1′-biphenyl-2-yl)methoxy]phenyl}-1-cyclohexyl-1H-imidazol-4-yl)-2-methyl-2-propenoic acid] gave a pIC50 of 5.60.

In the case of `CNC(=O)c1ccc(-c2ccc(Cl)cc2)c(COc2ccc(-c3nc(/C=C(\C)C(=O)OC(C)(C)C)cn3C3CCCCC3)cc2)c1` [Example 53, Butoxy^t (2E)-3-(2-{4-[(4′-chloro-4-N-methylcarbamoyl-1,1′-biphenyl-2-yl)methoxy]phenyl}-1-cyclohexyl-1H-imidazol-4-yl)-2-methyl-2-propenoate], the pIC50 is less than 4.60.
